A melting point compilation (Tetko et al.; mined from patent text by program, amines drawn as free bases though some values may be those of a salt)

Compound	melting point [°C]
CCO/C(=C\c1ccc(C#N)cc1)C(=O)O	171 to 172
CN(C)C=CC(=O)c1cccnn1	102 to 105
CCCCCC1=C(CCCCC)CC(CNC(=O)Nc2c(C(C)C)cccc2C(C)C)SC1 (stereo not drawn)	65 to 67
CC(=O)N1CCC(OC(CO)c2ccccc2)CC1 (stereo not drawn)	92 to 94
CC(N)=CC(=O)OCC(C)(C)CN(C)Cc1ccccc1	68 to 70
COc1ccc(F)cc1C(C)(C)CC(O)(CN1CC(=O)Nc2ccccc21)C(F)(F)F (stereo not drawn)	69 to 71
O=C(O)c1ccc(=O)n(-c2ccccc2)c1	115 to 120
CC(=O)NC(=O)c1cc([N+](=O)[O-])cnc1C(Br)Br	168
COc1ccc2c(c1)OC(C(=O)O)C2 (racemic)	108 to 110
COC(=O)CC[C@H](NC(=O)c1ccc(CCC2CNc3nc(NC(=O)C(C)(C)C)nc(O)c3C2)s1)C(=O)OC (stereo partly drawn)	152 to 160
O=S1(=O)NC(C23CC4CC(CC(C4)C2)C3)Nc2c(Br)cc(Br)cc21 (stereo not drawn)	270 to 273
CC(C)(C)[S@@](=O)/N=C/c1cc(F)cc(C#N)c1	93 to 99
CC(C)(C)C=Cc1nn(-c2ccc(F)cc2F)c2c1C1CCC2C1 (stereo not drawn)	98 to 101
COc1cccc(N2CCN(C(=O)[C@](C)(C#N)[C@H](c3ccccc3OC)c3cccc4ccccc34)CC2)c1	147 to 148
Cc1cnn(-c2ccc(C(=O)N3C=C4CC=CN4Cc4ccccc43)cc2)c1	179 to 181
CCOC(=O)C(CC=Cc1ccccc1)(NC(C)=O)C(=O)OCC	70 to 75
N#Cc1ccc(CBr)c2ccccc12	131 to 133
O=C(O)C1CCNC2CCCCC21 (stereo not drawn)	> 300

Compound	melting point [°C]
CSCCOc1ccccc1NN	72.5 to 74.5
CCOP(=O)(CN(Cc1ccncc1)C(=O)Cc1cc(C(C)(C)C)c(O)c(C(C)(C)C)c1)OCC	160 to 162
Nc1ccc(Nc2cc3c(cc2Nc2ccc(N)cc2)C(=O)NC3=O)cc1	154 to 157
CC(C)CNc1nc(-c2ccccc2)cn2ccnc12	81
O=C1CCCc2[nH]c3ccc(F)cc3c21	255 to 260
CCCCC(C(=O)N[C@H]1CN2CCC1CC2)c1ccccc1 (stereo partly drawn)	136
CC(=O)ON1Cc2ccccc2C1=O	69 to 71
O=C1CCC(N2Cc3c(OCc4ccc(CN5CCCCC5)cc4)cccc3C2=O)C(=O)N1 (stereo not drawn)	186 to 188
O=C1COCC(c2ccc(F)c(F)c2)N1C(=O)NCCCN1CCC(O)(c2ccccc2)CC1 (stereo not drawn)	85 to 88
Cc1nc2ccccc2n1-c1ccccc1	46 to 48
C(=C1CN2CCC1CC2)c1ccc(-c2ccccc2)cc1	107
NC(=O)c1nc(-c2cccc(O)c2)nc2c1[nH]c(=O)n2-c1cccc2c1CCCC2	> 250
CC(=O)C1=CCC2C3CCC4CC(O)CCC4(C)C3C(=O)CC12C (stereo not drawn)	218
O=S1(=O)OCCN1Cc1ccccc1Cl	61 to 62.5
O=C(Nc1cccc(Br)n1)Nc1cccc2c1C1CCCCN1C2=O (stereo not drawn)	218 to 220
COC(=O)CCn1c(=O)n(CCN2CCN(c3ccc(F)cc3)CC2)c(=O)c2cscc21	165 to 166
CC12C(=CCC3C1CCC1(C)C3CCC13OCCO3)CC(O)CC2O (stereo not drawn)	205 to 206

Results, then the compound that gave them:

melting point [°C]	Compound
225	N#Cc1cc(Cc2ccncc2)cc(-c2cccc([N+](=O)[O-])c2)c1O
165 to 167	O=C1CC2CCSc3sc(CCO)cc3C2=NN1 (stereo not drawn)
252 to 255	CN1CC2Cc3cc4c(cc3C(c3ccc([N+](=O)[O-])cc3)=NN2C1=O)OCO4 (stereo not drawn)
108 to 111	CC(CCN1CCCCC1)CC(=O)NNC(=O)N1Cc2ccccc2Oc2ccc(Cl)cc21 (stereo not drawn)
167 to 171	CCCC1=C(C#N)C(c2ccccc2Cl)c2cn(C(=O)Nc3ccccc3)nc2N1 (stereo not drawn)
69 to 70	CCCCCCCCC1=C(Cl)C(=O)c2ccccc2C1=O
127 to 128	CC(C)(/C=C\Cl)C(=O)Nc1ccc(Cl)cc1
170 to 171	CC(C)(C)OC(=O)NCCc1cccc(-c2nc(=O)c3ccccc3s2)n1
70 to 71	CN1CCN(c2cccc3ccc(OS(=O)(=O)C(F)(F)F)cc23)CC1
> 330	COc1cc2c(cc1OC)-c1[nH]c3ccc([N+](=O)[O-])cc3c1CC(=O)N2
128 to 129	CC(C)(C)CN1C(=O)C(=O)N(c2ccc(C#N)cc2)C1=S
256 to 258	Cc1cc(Cl)ccc1NC(=O)NCc1ccc2c(c1)CN(C1CCC(=O)NC1=O)C2=O (stereo not drawn)
215 to 217	CCC1(C)Cc2cc(O)c(Cl)c(Cl)c2C1=O (stereo not drawn)
149	O=C(Nc1nc(C(Cl)(Cl)Cl)ns1)c1ccccc1F
182 to 184	COc1nc(C)nc(NC(=O)NS(=O)(=O)c2cccs2)n1
183 to 185	NC(=O)c1c(Cl)c(-c2ccccc2)n2c1CN(S(=O)(=O)Nc1ccc(F)cc1)CC2
199 to 200	Cc1nn(CCO)c(C)c1S(=O)(=O)c1cc(Cl)cc(Cl)c1
171 to 172	CCOc1c(OC)cc(C(=O)N2CCN(C(=O)C3=Cc4cc(OC)c(OC)cc4CCC3)CC2)cc1OC
39 to 40	CCOC(=O)C(C#N)Cc1cc(OC)c(OC)cc1C (stereo not drawn)

melting point [°C]	Compound
91 to 92	Cc1nn(C)cc1C(=O)Nc1ccccc1
218	Cc1c(-c2ccccc2)oc(C(=O)O)cc1=O
141	Cc1nc(N)sc1S(=O)(=O)N(CCO)CCO
221 to 223	CC(C)n1nc(-c2cc(NC(=O)OC(C)(C)C)cnc2-c2ccccc2)ccc1=O
140 to 144	CCOC(=O)C1=C(COCc2nnc(C)s2)NC(C)=C(C(=O)OC)C1c1cccc(Cl)c1Cl (stereo not drawn)
76 to 79	CCCC=Cc1c(C(C)C)nc(C(C)C)c(CO)c1-c1ccccc1C
> 280	CC1OC(Cc2cccc3c2C(=O)c2ccccc2C3=O)CC(N)C1O (stereo not drawn)
203 to 205	C/C(=C\c1ccc(C(=O)O)cc1)c1ccc2c(c1)N(C)CCN2C
171 to 173	CC(c1oc2ccccc2c(=O)c1-c1cccc(F)c1)n1nc(C#CCO)c2c(N)ncnc21 (stereo not drawn)
204 to 206	O=C1Nc2ccc(S(=O)(=O)N3CCC[C@H]3COc3ccccc3)cc2C1=O
> 270	NCc1ccn(-c2cc3c(cc2[N+](=O)[O-])[nH]c(=O)c(=O)n3CC(=O)O)c1
180 to 182	CC(=O)N1CCc2c(sc(C)c2C(=O)CCN2CCC(c3noc4cc(F)ccc34)CC2)C1
96 to 97	Cc1nc(C(F)(F)F)ccc1C(=O)c1c(S(C)=O)noc1C1CC1 (stereo not drawn)
175 to 177	CCC1c2cccn2-c2ccc(F)cc2N1S(=O)(=O)c1ccc(O)c(C)c1 (stereo not drawn)
132 to 135	CC(C)(OCc1nn(C(=O)c2ccccc2)c2ccccc12)C(=O)O
61.5 to 63	COC(=O)CCC(=O)c1ccc(C)cc1OCC1CO1 (stereo not drawn)
118 to 125	Cc1noc(NS(=O)(=O)c2ccccc2-c2ccc(-c3ncco3)cc2CN2CC(C)(C)CC2=O)c1C
176 to 178	O=C(Cc1ccccc1Cl)N1CCCc2ncc3ccccc3c21
105 to 110	CC1(C)Cc2cccc(Oc3c(Cl)cc([N+](=O)[O-])cc3Cl)c2O1
